Laboratory results taken from patent US20240400553A1, “AMINE BASED MATRIPTASE 2 INHIBITORS AND USES THEREOF” (Disc Medicine, Inc., priority 2023, published 2024).

molecular target: T1, Human Recombinant Matriptase 2 (Homo sapiens, UniProt Q8IU80); assay: Matriptase 2 inhibition, fluorescence based assay (Method I); assay type: biochemical; details: Table A; Ki of Matriptase-2; read-out: Mat-2 Ki
T1 construct: made in house
T1 sequence (Q8IU80 1-811): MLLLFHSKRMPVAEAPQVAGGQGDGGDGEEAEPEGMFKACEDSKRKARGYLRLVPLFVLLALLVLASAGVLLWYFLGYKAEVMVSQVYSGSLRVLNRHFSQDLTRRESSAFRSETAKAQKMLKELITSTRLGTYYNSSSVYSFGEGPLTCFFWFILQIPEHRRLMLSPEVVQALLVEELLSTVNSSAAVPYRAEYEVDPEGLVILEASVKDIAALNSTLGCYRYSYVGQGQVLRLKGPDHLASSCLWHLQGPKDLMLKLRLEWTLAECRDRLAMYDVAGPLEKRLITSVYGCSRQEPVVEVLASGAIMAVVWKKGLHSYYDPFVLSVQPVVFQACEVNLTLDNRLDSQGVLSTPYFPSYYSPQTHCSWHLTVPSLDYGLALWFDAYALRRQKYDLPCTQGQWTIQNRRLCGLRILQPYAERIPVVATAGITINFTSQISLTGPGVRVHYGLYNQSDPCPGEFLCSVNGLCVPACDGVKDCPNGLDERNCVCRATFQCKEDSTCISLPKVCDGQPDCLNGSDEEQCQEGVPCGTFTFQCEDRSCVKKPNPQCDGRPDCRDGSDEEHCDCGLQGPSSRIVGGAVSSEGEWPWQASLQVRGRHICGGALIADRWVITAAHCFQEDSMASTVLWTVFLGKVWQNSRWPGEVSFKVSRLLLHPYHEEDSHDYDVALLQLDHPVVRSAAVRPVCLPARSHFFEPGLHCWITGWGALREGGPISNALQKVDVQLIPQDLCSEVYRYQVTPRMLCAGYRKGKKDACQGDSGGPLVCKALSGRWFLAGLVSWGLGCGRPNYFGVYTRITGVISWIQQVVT
Procedure, shortened: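 In-house recombinant enzyme (3.5 nM), preincubated 30 min with compound, then Boc-Gln-Ala-Arg-AMC substrate (62 μM) in 50 mM Tris pH 7.5, 150 mM NaCl, 0.01% gelatin, 1% DMSO, 25 °C. Fluorescence (Ex 360/Em 480 nm) read 60 min after substrate; IC50 from variable-slope sigmoidal fit of % inhibition.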

Row | Ki | Compound
1 | ≤ 100 nM | Cn1cncc1COC(=O)c1cc2ccc(CN)nc2n1Cc1cc(NS(=O)(=O)Cc2ccsc2)cc2ccccc12 [Compound 155, (1-methyl-1H-imidazol-5-yl)methyl 6-(amino-methyl)-1-({3-[(thiophen-3-yl)methanesulfon-amido]naphthalen-1-yl}-methyl)-1H-pyrrolo[2,3-b]pyridine-2-carboxylate]
2 | 100 to 500 nM | CC(C)n1ccc(COC(=O)c2cc3ccc(CN)nc3n2Cc2cc(NS(=O)(=O)Cc3ccccc3)cc3ccccc23)n1 [Compound 90, [1-(propan-2-yl)-1H-pyrazol-3-yl]methyl 6-(aminomethyl)-1-{[3-(phenylmethanesulfon-amido)naphthalen-1-yl]-methyl}-1H-pyrrolo[2,3-b]pyridine-2-carboxylate]
3 | ≤ 100 nM | NCc1ccc2cc(C(=O)OC[C@H]3CNCCO3)n(Cc3cc(NS(=O)(=O)Cc4ccccc4)cc4ccccc34)c2n1 [Compound 36]
4 | 100 to 500 nM | COCCOC(=O)c1cc2ccc(CN)nc2n1Cc1cc(NS(=O)(=O)Cc2ccccc2)cc2ccccc12 [Compound 95, 2-methoxyethyl 6-(aminomethyl)-1-{[3-(phenylmethanesulfon-amido)naphthalen-1-yl]-methyl}-1H-pyrrolo[2,3-b]pyridine-2-carboxylate]
5 | ≤ 100 nM | CNCCOC(=O)c1cc2ccc(CN)nc2n1Cc1cc(NS(=O)(=O)Cc2ccccc2)cc2ccccc12 [Compound 53, 2-(methylamino)ethyl 6-(aminomethyl)-1-{[3-(phenylmethanesulfon-amido)naphthalen-1-yl]-methyl}-1H-pyrrolo[2,3-b]pyridine-2-carboxylate]
6 | ≤ 100 nM | NCc1ccc2cc(C(=O)NCCS(N)(=O)=O)n(Cc3cc(NS(=O)(=O)Cc4ccccc4)cc4ccccc34)c2n1 [Compound 78, 6-(aminomethyl)-1-{[3-(phenylmethanesulfon-amido)naphthalen-1-yl]-methyl}-N-(2-sulfamoyl-ethyl)-1H-pyrrolo[2,3-b]pyridine-2-carboxamide]
7 | ≤ 100 nM | NCc1ccc2cc(C(=O)OCCN3CCOCC3)n(Cc3cc(NS(=O)(=O)Cc4ccsc4)cc4ccccc34)c2n1 [Compound 168, 2-(morpholin-4-yl)ethyl 6-(aminomethyl)-1-({3-[(thiophen-3-yl)methane-sulfonamido]naphthalen-1-yl}methyl)-1H-pyr-rolo[2,3-b]pyridine-2-carboxylate]
8 | 100 to 500 nM | COc1ccccc1CS(=O)(=O)Nc1cc(Cn2c(C(=O)O)cc3ccc(CN)nc32)c2ccccc2c1 [Compound 180, 6-(aminomethyl)-1-({3-[(2-methoxyphenyl)-methanesulfonamido]-naphthalen-1-yl}meth-yl)-1H-pyrrolo[2,3-b]-pyridine-2-carboxylic acid]
9 | 100 to 500 nM | NCc1ccc2cc(C(=O)OCCn3cncn3)n(Cc3cc(NS(=O)(=O)Cc4ccccc4)cc4ccccc34)c2n1 [Compound 97]
10 | ≤ 100 nM | CN(C)CCOC(=O)c1cc2ccc(CN)nc2n1Cc1cc(NS(=O)(=O)Cc2ccsc2)cc2ccccc12 [Compound 169, 2-(dimethylamino)ethyl 6-(aminomethyl)-1-({3-[(thiophen-3-yl)methane-sulfonamido]naphthalen-1-yl}methyl)-1H-pyr-rolo[2,3-b]pyridine-2-carboxylate]
11 | ≤ 100 nM | CNCCCOC(=O)c1cc2ccc(CN)nc2n1Cc1cc(NS(=O)(=O)Cc2ccccc2)cc2ccccc12 [Compound 35, 3-(methylamino)propyl 6-(aminomethyl)-1-{[3-(phenylmethanesulfon-amido)naphthalen-1-yl]-methyl}-1H-pyrrolo[2,3-b]pyridine-2-carboxylate]
12 | 100 to 500 nM | CCOC(=O)c1cc2ccc(CN)nc2n1Cc1cc(NS(=O)(=O)Cc2cccs2)cc2ccccc12 [Compound 154, ethyl 6-(aminomethyl)-1-({3-[(thiophen-2-yl)-methanesulfonamido]-naphthalen-1-yl}methyl)-1H-pyrrolo[2,3-b]pyr-idine-2-carboxylate]
13 | ≤ 100 nM | C[C@@H](COC(=O)c1cc2ccc(CN)nc2n1Cc1cc(NS(=O)(=O)Cc2ccccc2)cc2ccccc12)N(C)C [Compound 27, (2S)-2-(dimethylamino)-propyl 6-(aminomethyl)-1-{[3-(phenylmethane-sulfonamido)naphthalen-1-yl]methyl}-1H-pyr-rolo[2,3-b]pyridine-2-carboxylate]

Continued, molecule first:

Row | Compound | Ki
14 | Cn1ccnc1CNC(=O)c1cc2ccc(CN)nc2n1Cc1cc(NS(=O)(=O)Cc2ccsc2)cc2ccccc12 [Compound 165] | ≤ 100 nM
15 | CN1CCC(COC(=O)c2cc3ccc(CN)nc3n2Cc2cc(NS(=O)(=O)Cc3ccc(F)s3)cc3ccccc23)CC1 [Compound 149, (1-methylpiperidin-4-yl)methyl 6-(amino-methyl)-1-({3-[(5-fluoro-thiophen-2-yl)methane-sulfonamido]naphthalen-1-yl}methyl)-1H-pyr-rolo[2,3-b]pyridine-2-carboxylate] | ≤ 100 nM
16 | CN1CCC(COC(=O)c2cc3ccc(CN)nc3n2Cc2cc(NS(=O)(=O)Cc3ccsc3)cc3ccccc23)CC1 [Compound 5] | ≤ 100 nM

same assay, conditions: Table A; Ki of Matriptase-2 given as class symbols; read-out: Mat-2 Ki

Row | Ki | Compound
17 | 100 to 500 nM | Cn1cc(CS(=O)(=O)Nc2cc(Cn3c(C(=O)O)cc4ccc(CN)nc43)c3ccccc3c2)cn1 [Compound 244, 6-(aminomethyl)-1-({3-[(1-methyl-1H-pyrazol-4-yl)methanesulfonamido]-naphthalen-1-yl}methyl)-1H-pyrrolo[2,3-b]pyr-idine-2-carboxylic acid]
18 | 500 to 3000 nM | NCc1ccc2cc(C(=O)O)n(Cc3cc(NS(=O)(=O)Cc4c(Cl)cccc4Cl)cc4ccccc34)c2n1 [Compound 251, 6-(aminomethyl)-1-({3-[(2,6-dichlorophenyl)-methanesulfonamido]-naphthalen-1-yl}methyl)-1H-pyrrolo[2,3-b]pyr-idine-2-carboxylic acid]

The next lines start with the molecule.

Row | Compound | Ki
19 | CCOC(=O)c1cc2ccc(CN)nc2n1Cc1cc(NS(=O)(=O)CC2CCNCC2)cc2ccccc12 [Compound 241, ethyl 6-(aminomethyl)-1-({3-[(piperidin-4-yl)-methanesulfonamido]-naphthalen-1-yl}methyl)-1H-pyrrolo[2,3-b]pyr-idine-2-carboxylate] | 100 to 500 nM
20 | NCc1ccc2cc(C(=O)O)n(Cc3cc(NS(=O)(=O)CC[C@@H]4CCCN4)cc4ccccc34)c2c1 [Compound 389, 6-(aminomethyl)-1-[(3-{2-[(2S)-pyrrolidin-2-yl]ethanesulfonamido}-naphthalen-1-yl)methyl]-1H-indole-2-carboxylic acid] | 100 to 500 nM
21 | NCc1ccc2cc(C(=O)O)n(Cc3cc(NS(=O)(=O)C4CCOCC4)cc4ccccc34)c2n1 [Compound 240, 6-(aminomethyl)-1-{[3-(oxane-4-sulfonamido)-naphthalen-1-yl]methyl}-1H-pyrrolo[2,3-b]pyr-idine-2-carboxylic acid] | 100 to 500 nM
22 | NCc1ccc2cc(C(=O)Nc3nnn[nH]3)n(Cc3cc(NS(=O)(=O)CC[C@@H]4CCCN4)cc4ccccc34)c2n1 [Compound 208, 6-(aminomethyl)-1-[(3-(2-[(2S)-pyrrolidin-2-yl]ethanesulfonamido}-naphthalen-1-yl)methyl]-N-(1H-1,2,3,4-tetrazol-5-yl)-1H-pyrrolo[2,3-b]-pyridine-2-carboxamide] | ≤ 100 nM
23 | CC(C)[C@H]1CCCN1C(=O)Nc1cc(Cn2c(C(=O)O)cc3ccc(CN)nc32)c2ccccc2c1 [Compound 299, 6-(aminomethyl)-1-[(3-{[(2R)-2-(propan-2-yl)-pyrrolidine-1-carbonyl]-amino}naphthalen-1-yl)-methyl]-1H-pyrrolo[2,3-b]pyridine-2-carboxylic acid] | 500 to 3000 nM
24 | CN1CCCC(COC(=O)c2cc3ccc(CN)cc3n2Cc2cc(NS(=O)(=O)Cc3ccccc3)cc3ccccc23)C1 (racemic) [Compound 382, (1-methylpiperidin-3-yl)-methyl 6-(aminomethyl)-1-{[3-(phenylmethane-sulfonamido)naphthalen-1-yl]methyl}-1H-indole-2-carboxylate] | ≤ 100 nM
25 | Cc1cccc(C)c1CS(=O)(=O)Nc1cc(Cn2c(C(=O)OCC3CCN(C)CC3)cc3ccc(CN)cc32)c2ccccc2c1 [Compound 375, (1-methylpiperidin-4-yl)-methyl 6-(aminomethyl)-1-({3-[(2,6-dimethyl-phenyl)methanesulfon-amido)naphthalen-1-yl}-methyl)-1H-indole-2-carboxylate] | ≤ 100 nM
26 | NCc1ccc2cc(C(=O)O)n(Cc3cc(NS(=O)(=O)[C@@H]4CCOC4)cc4ccccc34)c2n1 [Compound 276] | 500 to 3000 nM
27 | NCc1ccc2cc(C(N)=O)n(Cc3cc(NS(=O)(=O)CC[C@@H]4CCCN4)cc4ccccc34)c2n1 [Compound 213, 6-(aminomethyl)-1-[(3-{2-[(2S)-pyrrolidin-2-yl]ethanesulfonamido}-naphthalen-1-yl)methyl]-1H-pyrrolo[2,3-b]pyr-idine-2-carboxamide] | ≤ 100 nM
